# Reference: patent publication US10519153B2, “Fused imidazo-piperidine JAK inhibitors” (THERAVANCE BIOPHARMA R&D IP, LLC, priority 2017, dated 2019)
# Test system: IL-6 stimulated pSTAT3 in CD3+ T cells
# Test: Inhibition of IL-6 stimulated pSTAT3 in CD3+ T cells
# Type: cell-based, human
# Description: Assay 10: Cellular JAK Potency Assay: Inhibition of IL-6 Stimulated pSTAT3 in CD3+ T Cells
# A protocol analogous to that of Assay 9 was used to determine the potency of the test compound for inhibition of interleuken-6 (IL-6) stimulated STAT3 phosphorylation. An Alexa Fluor 647 conjugated anti-pSTAT3 antibody (pY705, Clone 4/P, BD Biosciences) was used to detect STAT3 phosphorylation.
row,Structure (SMILES),inhibition of IL-6 signaling (in words)
1,CCc1cc(O)c(F)cc1-c1ccc2c(-c3nc4c([nH]3)CN(C(C)C)[C@H](C(=O)N3CC[C@H](N(C)C)C3)C4)n[nH]c2c1 [Example 3],inhibit IL-6 signaling
2,"CCCN1Cc2[nH]c(-c3n[nH]c4cc(-c5cc(F)c(O)cc5CC)ccc34)nc2C[C@H]1C(=O)N1C[C@@H]2C[C@H]1CN2C [Example 1, ((S)-2-(6-(2-ethyl-5-fluoro-4-hydroxyphenyl)-1H-indazol-3-yl)-5-propyl-4,5,6,7-tetrahydro-3H-imidazo[4,5-c]pyridin-6-yl)((1S,4S)-5-methyl-2,5-diazabicyclo-[2.2.1]heptan-2-yl)methanone]",inhibit IL-6 signaling
